According to ChEMBL document CHEMBL1201862, “PubChem BioAssay data set” (2004):
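Briefly, cells in 96-well plates were exposed to five compound concentrations for 48 h, and endpoints were estimated by linear interpolation. GI50 = concentration required for 50% inhibition of growth.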 Active and inactive are the calls of the source. Cut-off read from the data, not from the text of the source: active = GI50 up to about 1.1 µM and inactive = higher. Peptide text beside a SMILES is read from it. * marks the point of attachment. Cbz = O=C(OCc1ccccc1)*; CH2Cl = ClC*

How the values were obtained:
Assay in all cases: DTP human tumour cell line panel, 48 h
MDA-N = system: MDA-N
DLD-1 = system: DLD-1
DMS-114 = system: DMS-114
M19-MEL = system: M19-MEL
SNB-78 = system: SNB-78
KM-20L2 = system: KM-20L2
HOP-18 = system: HOP-18
LXFL 529 = system: LXFL 529
RXF 631 = system: RXF 631

Row | SMILES | GI50 (MDA-N) | GI50 (DLD-1) | GI50 (SNB-78) | GI50 (KM-20L2) | also measured
1 | COc1cc(-c2coc3c(OC)c(OC4OC(CO)C(O)C(O)C4O)c(OC)cc3c2=O)cc(OC)c1C (centres undefined) | 2.21 µM (inactive) |  |  |  | 
2 | CC(=O)/C=C/c1ccc(C2CC(C)=Nc3c(ccc4c3C(=O)c3ccccc3C4=O)N2)cc1 (centres undefined) |  | 24.7 µM (inactive) | > 100 µM (inactive) | > 100 µM (inactive) | GI50 (DMS-114): 34.9 µM (inactive); GI50 (M19-MEL): > 62.5 µM (inactive); GI50 (HOP-18): > 80.9 µM (inactive)
3 | CCC(c1ccc(OC)cc1)C1NC(=S)NC1=O (centres undefined) | > 50 µM (inactive) |  |  |  | 
4 | O=C(N/N=C\c1ccc([N+](=O)[O-])cc1)Nc1cccc2ccccc12 | > 100 µM (inactive) |  |  |  | 
5 | Cc1cc(N)c2cc(NC(=O)CCCCCCCCC(=O)Nc3ccc4nc(C)cc(N)c4c3)ccc2n1 |  | > 100 µM (inactive) | > 100 µM (inactive) | 29.1 µM (inactive) | GI50 (M19-MEL): 15.4 µM (inactive); GI50 (HOP-18): > 100 µM (inactive); GI50 (LXFL 529): 4.37 µM (inactive)
6 | COc1ccc(N2C(=O)C3c4[nH]c5ccccc5c4C4CCC(c5ccccc5)CC4C3C2=O)cc1 (centres undefined) | 52.8 µM (inactive) |  |  |  | 
7 | CCCCN(CCCC)CCCn1cnc2ncccc2c1=O |  | > 100 µM (inactive) | > 100 µM (inactive) | > 100 µM (inactive) | GI50 (DMS-114): 53.6 µM (inactive); GI50 (M19-MEL): > 100 µM (inactive); GI50 (LXFL 529): > 100 µM (inactive)
8 | CCOC(=O)NC(Nc1ccc(F)cc1)(C(=O)OCC)C(F)(F)F (centres undefined) | > 62.1 µM (inactive) |  |  |  | 
9 | Cc1cc2c(=O)c3ccc(Cl)cc3[nH]c2c(C(=O)O)c1C |  | > 100 µM (inactive) | > 100 µM (inactive) | > 100 µM (inactive) | GI50 (DMS-114): > 100 µM (inactive); GI50 (M19-MEL): > 100 µM (inactive); GI50 (HOP-18): > 100 µM (inactive); GI50 (LXFL 529): > 100 µM (inactive)
10 | CCOc1nc2sc3c(c2c(=O)n1CCSSCCn1c(OCC)nc2sc4c(c2c1=O)CCCC4)CCCC3 | > 100 µM (inactive) |  |  |  | 
11 | CCOC(=O)CNC(=O)C(CSC(=O)N(O)c1ccc(Br)cc1)NC(=O)CCC(N)C(=O)OCC (centres undefined) | > 50 µM (inactive) |  |  |  | 
12 | CC(C)CC(NC(=O)OCc1ccccc1)C(=O)NC(Cc1ccccc1)C(=O)CCl (stereo not drawn) (Cbz-Leu-Phe-CH2Cl; configuration not given here) | 1.56 µM (inactive) |  |  |  | 
13 | Cc1ccc(C2NC(=O)c3ccccc3N2)c(C)c1 (centres undefined) | 0.174 µM (active) |  |  |  | 
14 | OC(c1nc2ccccc2[nH]1)C(O)C(O)C(O)c1nc2ccccc2[nH]1 (centres undefined) | > 100 µM (inactive) |  |  |  | 
15 | Cc1oc2c(c1C)S(=O)(=O)C(C#N)=C(N(C)C)N2 | > 100 µM (inactive) |  |  |  | 
16 | O=C(CCC(=O)C(C(=O)c1ccccc1)c1ccccc1)Nc1cccc(C(F)(F)F)c1 (centres undefined) |  | > 100 µM (inactive) | > 100 µM (inactive) | > 100 µM (inactive) | GI50 (DMS-114): > 100 µM (inactive); GI50 (M19-MEL): > 100 µM (inactive); GI50 (HOP-18): > 100 µM (inactive); GI50 (LXFL 529): > 100 µM (inactive)

Row | SMILES | GI50 (MDA-N) | GI50 (DLD-1) | GI50 (SNB-78) | GI50 (KM-20L2) | also measured
17 | COc1ccc(-c2onc(-c3ccc([N+](=O)[O-])cc3)c2C2=NCCN2)cc1 |  | 74.1 µM (inactive) | 67.3 µM (inactive) | > 100 µM (inactive) | GI50 (M19-MEL): > 100 µM (inactive); GI50 (HOP-18): 87.5 µM (inactive); GI50 (LXFL 529): 35.5 µM (inactive)
18 | Cc1nc2c(n1CCC(C)C)C(=O)c1ccccc1C2=O |  | 11.1 µM (inactive) | 28.1 µM (inactive) | 28.5 µM (inactive) | GI50 (M19-MEL): 14.5 µM (inactive); GI50 (LXFL 529): 13.1 µM (inactive)
19 | O=C1C(Cl)=C(N2C(=O)CCC2=O)C(=O)c2ccccc21 | 19.4 µM (inactive) |  |  |  | 
20 | Fc1cc(-c2cc(-c3ccccc3)n[nH]2)c(Cl)cc1Cl | > 100 µM (inactive) |  |  |  | 
21 | Cc1ccccc1NC(=O)C(=O)c1c(O)c2ccc(O)cc2oc1=O |  | > 100 µM (inactive) |  | > 100 µM (inactive) | GI50 (DMS-114): > 100 µM (inactive); GI50 (M19-MEL): > 100 µM (inactive); GI50 (HOP-18): > 100 µM (inactive); GI50 (LXFL 529): > 100 µM (inactive)
22 | CCC(C)CCOC(=O)c1ccc(/N=C\c2ccc(/C=N/c3ccc(C(=O)OCCC(C)CC)cc3)cc2)cc1 (centres undefined) |  | > 100 µM (inactive) | > 100 µM (inactive) | > 100 µM (inactive) | GI50 (DMS-114): > 100 µM (inactive); GI50 (HOP-18): > 100 µM (inactive); GI50 (LXFL 529): > 100 µM (inactive)
23 | O=C(NCC#CCO)C(F)(F)F |  | > 100 µM (inactive) | > 100 µM (inactive) |  | GI50 (DMS-114): > 100 µM (inactive); GI50 (RXF 631): > 100 µM (inactive)
24 | O=c1[nH]c2c(c3ccccc13)CCc1ccccc1-2 |  |  | > 100 µM (inactive) | > 100 µM (inactive) | GI50 (DMS-114): > 100 µM (inactive); GI50 (M19-MEL): > 100 µM (inactive); GI50 (LXFL 529): > 100 µM (inactive)
25 | COc1ccc(C(OC(C)=O)C2C(=C(C#N)C#N)c3ccccc3C2=C(C#N)C#N)cc1 (centres undefined) | 42.1 µM (inactive) |  |  |  | 
26 | Cc1ccc(C)c(COCCOCn2ccc(N)nc2=O)c1 | > 100 µM (inactive) |  |  |  | 
27 | NC1=C(N2CCOCC2)C(=O)NC2=N/C(=C\c3ccccc3)C(=O)N21 | > 100 µM (inactive) |  |  |  | 
28 | CC(C1CCCC1=O)C1CCCC1=O (centres undefined) | > 100 µM (inactive) |  |  |  | 
29 | C[C@@H](NC(=O)OC1C=CC2(CC1)C(=O)N(C)c1ccccc12)c1cccc2ccccc12 (some centres undefined) | 15.5 µM (inactive) |  |  |  | 
30 | O=C1C(Br)=CC2(C=C1Br)CCNC1=C2C(=O)c2[nH]cnc2C1=O | 1.77 µM (inactive) |  |  |  | 
31 | C=C(C)C1CC(=O)C(C)=C(O)C1 (centres undefined) | > 100 µM (inactive) |  |  |  | 
